Assay results: ChEMBL document CHEMBL6078637, “Cyclic Diguanylate G-Quadruplex Inducer-Quorum Sensing Inhibitor Hybrids as Bifunctional Anti-biofilm and Anti-virulence Agents Against Pseudomonas aeruginosa” (J Med Chem, 2024)
The source made the active and inactive calls. No cut-off for these calls is given here.

Tests used:
[1] = Toxicity in Caenorhabditis elegans infected with Pseudomonas aeruginosa PAO1 assessed as nematode survival at 2 ug incubated for 48 hrs; conditions: in vivo, at 2 µg
Pseudomonas aeruginosa [2] = test: Antibacterial activity against Pseudomonas aeruginosa PAO1 incubated for 24 hrs by absorbance based assay; type: functional
Pseudomonas aeruginosa [3] = test: Inhibition of beta-galactosidase in Pseudomonas aeruginosa PAO1 harboring mini-ctx-lacZ at 10 uM incubated for 6 hrs by ONPG test relative to control
Pseudomonas aeruginosa [4] = test: Downregulation of lasB mRNA level in Pseudomonas aeruginosa PAO1 at 10 uM by RT-qPCR analysis; type: functional, organism-based
Pseudomonas aeruginosa [5] = test: Inhibition of beta-galactosidase in Pseudomonas aeruginosa PAO1 harboring mini-ctx-pqsA-lacZ incubated for 6 hrs by ONPG test; conditions: dose <= 10.0 µM
Pseudomonas aeruginosa [6] = test: Downregulation of rhlA mRNA level in Pseudomonas aeruginosa PAO1 at 10 uM by RT-qPCR analysis; type: functional, organism-based
Pseudomonas aeruginosa [7] = test: Downregulation of rhlR mRNA level in Pseudomonas aeruginosa PAO1 at 10 uM by RT-qPCR analysis; type: functional, organism-based
[8] = Toxicity in Caenorhabditis elegans infected with Pseudomonas aeruginosa PAO1 assessed as reduction in nematode mortality rate at 10 uM incubated for 48 hrs in presence of TOB; parameters: scale not given: the % may be the effect or the level left
Pseudomonas aeruginosa [9] = test: Antivirulence activity against Pseudomonas aeruginosa PAO1 assessed as reduction in rhamnolipid level at 10 uM incubated for 24 hrs by orcinol based analysis; type: functional, organism-based
Pseudomonas aeruginosa [10] = test: Inhibition of beta-galactosidase in Pseudomonas aeruginosa PAO1 harboring mini-ctx-lasB-lacZ at 10 uM incubated for 6 hrs by ONPG test relative to control
Pseudomonas aeruginosa [11] = test: Inhibition of beta-galactosidase in Pseudomonas aeruginosa PAO1 harboring mini-ctx-pqsA-lacZ at 10 uM incubated for 6 hrs by ONPG test relative to control
Pseudomonas aeruginosa [12] = test: Synergistic inhibition of bacterial virulence of Pseudomonas aeruginosa PAO1 infected in Caenorhabditis elegans upto 10 uM incubated for 36 hrs in presence of TOB; type: functional, organism-based
Vero = test: Cytotoxicity against African green monkey Vero cells at 12.5 uM incubated for 24 hrs by MTT assay; type: toxicity, cell-based; conditions: chlorocebus sabaeus
Pseudomonas aeruginosa [13] = test: Antivirulence activity against Pseudomonas aeruginosa PAO1 assessed as reduction in hemolysin level at 10 uM preincubated for 24 hrs followed by addition of erythrocytes measured after 30 mins by absorbance based analysis relative to control; type: functional; parameters: scale not given: the % may be the effect or the level left
Pseudomonas aeruginosa [14] = test: Downregulation of pelA mRNA level in Pseudomonas aeruginosa PAO1 at 10 uM by RT-qPCR analysis; type: functional, organism-based
Pseudomonas aeruginosa [15] = test: Inhibition of twitching motility of Pseudomonas aeruginosa PAO1 at 10 uM incubated overnight by crystal voilet staining based analysis; type: functional, organism-based
Pseudomonas aeruginosa [16] = test: Synergistic inhibition of bacterial virulence of hyper-biofilm phenotype Pseudomonas aeruginosa PAO1 harboring wspF mutant upto 10 uM incubated for 36 hrs in presence of TOB; type: functional, organism-based
[17] = Toxicity in Caenorhabditis elegans assessed as nematode survival upto 100 uM incubated for 96 hrs
Pseudomonas aeruginosa [18] = test: Inhibition of swarming motility of Pseudomonas aeruginosa PAO1 at 10 uM incubated overnight; type: functional, organism-based
Pseudomonas aeruginosa [19] = test: Antivirulence activity against Pseudomonas aeruginosa PAO1 assessed as reduction in pyocyanin level incubated for 24 hrs by absorbance based assay; type: functional, organism-based; conditions: dose <= 10.0 µM
Pseudomonas aeruginosa [20] = test: Inhibition of swimming motility of Pseudomonas aeruginosa PAO1 at 10 uM incubated overnight relative to control; type: functional
Pseudomonas aeruginosa [21] = test: Inhibition of beta-galactosidase in Pseudomonas aeruginosa PAO1 harboring mini-ctx-lasB-lacZ incubated for 6 hrs by ONPG test; conditions: dose <= 10.0 µM
Pseudomonas aeruginosa [22] = test: Synergistic inhibition of bacterial virulence of hyper-biofilm phenotype Pseudomonas aeruginosa PAO1 harboring wspF mutant upto 10 uM incubated for 36 hrs in presence of tetracycline; type: functional, organism-based
Pseudomonas aeruginosa [23] = test: Inhibition of beta-galactosidase in Pseudomonas aeruginosa PAO1 harboring mini-ctx-rhlA-lacZ at 10 uM incubated for 6 hrs by ONPG test relative to control
Pseudomonas aeruginosa [24] = test: Inhibition of swarming motility of Pseudomonas aeruginosa PAO1 incubated overnight; type: functional, organism-based; conditions: dose <= 10.0 µM
Pseudomonas aeruginosa [25] = test: Inhibition of twitching motility of Pseudomonas aeruginosa PAO1 incubated overnight by crystal voilet staining based analysis; type: functional, organism-based; conditions: dose <= 10.0 µM
[26] = Toxicity in Caenorhabditis elegans infected with Pseudomonas aeruginosa PAO1 assessed as nematode survival at 10 uM incubated for 48 hrs
[27] = Hemolytic activity in rabbit erythrocytes assessed as damage in cell membrane integrity at 100 uM incubated for 4 hrs by absorbance based assay; type: toxicity, Oryctolagus cuniculus; conditions: erythrocyte
Pseudomonas aeruginosa [28] = test: Antivirulence activity against Pseudomonas aeruginosa PAO1 assessed as reduction in rhamnolipid level incubated for 24 hrs by orcinol based analysis; type: functional, organism-based; conditions: dose <= 10.0 µM
DNA [29] = test: Binding affinity to pBR322 DNA (unknown origin) assessed as DNA migration at 50 uM preincubated for 10 mins followed by Topo I addition measured after 1 hr by TO dye based PAGE analysis; type: nucleic-acid assay; conditions: time 70.0 min
Pseudomonas aeruginosa [30] = test: Downregulation of lasR mRNA level in Pseudomonas aeruginosa PAO1 at 10 uM by RT-qPCR analysis; type: functional, organism-based
Pseudomonas aeruginosa [31] = test: Antibiofilm activity against Pseudomonas aeruginosa PAO1 harboring wspF mutant assessed as inhibition rate at 10 uM incubated for 24 hrs by absorbance based assay relative to control; type: functional
Pseudomonas aeruginosa [32] = test: Downregulation of pqsR mRNA level in Pseudomonas aeruginosa PAO1 at 10 uM by RT-qPCR analysis; type: functional, organism-based
[33] = Toxicity in Caenorhabditis elegans infected with hyper-biofilm phenotype Pseudomonas aeruginosa PAO1 harboring wspF mutant assessed as nematode death at 10 uM incubated for 48 hrs in presence of TOB
Pseudomonas aeruginosa [34] = test: Antibiofilm activity against Pseudomonas aeruginosa PAO1 harboring wspF mutant assessed as inhibition rate at 1.25 uM incubated for 24 hrs by absorbance based assay relative to control; type: functional
[35] = Toxicity in Caenorhabditis elegans infected with hyper-biofilm phenotype Pseudomonas aeruginosa PAO1 harboring wspF mutant assessed as nematode death at 10 uM incubated for 48 hrs in presence of tetracycline
Pseudomonas aeruginosa [36] = test: Synergistic antibacterial activity against Pseudomonas aeruginosa PAO1 assessed as bacterial growth inhibition at 20 uM incubated for 24 hrs in presence of tetracycline by CFU counting method; type: functional, organism-based
DNA [37] = test: Binding affinity to pBR322 DNA (unknown origin) assessed as DNA embedding toxicity at 50 uM preincubated for 10 mins followed by Topo I addition measured after 1 hr by TO dye based PAGE analysis; type: nucleic-acid assay; conditions: time 70.0 min
Pseudomonas aeruginosa [38] = test: Antivirulence activity against Pseudomonas aeruginosa PAO1 assessed as reduction in pyocyanin level at 10 uM incubated for 24 hrs by absorbance based assay relative to control; type: functional; parameters: scale not given: the % may be the effect or the level left
Pseudomonas aeruginosa [39] = test: Synergistic inhibition of bacterial virulence of Pseudomonas aeruginosa PAO1 infected in Caenorhabditis elegans upto 10 uM incubated for 36 hrs in presence of tetracycline; type: functional, organism-based
[40] = Toxicity in Caenorhabditis elegans infected with Pseudomonas aeruginosa PAO1 assessed as nematode survival at 10 uM incubated for 48 hrs in presence of tetracycline
Pseudomonas aeruginosa [41] = test: Antibiofilm activity against Pseudomonas aeruginosa PAO1 harboring wspF mutant incubated for 24 hrs by absorbance based assay; type: functional, organism-based
Pseudomonas aeruginosa [42] = test: Antivirulence activity against Pseudomonas aeruginosa PAO1 assessed as reduction in elastase level at 10 uM incubated for 24 hrs by elastin-Congo red staining based analysis relative to control; type: functional; parameters: scale not given: the % may be the effect or the level left
[43] = Inhibition of quorum sensing system in Pseudomonas aeruginosa PAO1 harboring mini-ctx-lasB-lacZ at 10 uM measured after 16 hrs by ONPG test relative to control
Pseudomonas aeruginosa [44] = test: Inhibition of swimming motility of Pseudomonas aeruginosa PAO1 incubated overnight; type: functional, organism-based; conditions: dose <= 10.0 µM
Pseudomonas aeruginosa [45] = test: Antivirulence activity against Pseudomonas aeruginosa PAO1 assessed as reduction in elastase level incubated for 24 hrs by elastin-Congo red staining based analysis; type: functional, organism-based; conditions: dose <= 10.0 µM

CN(C)[C@@H]1C(O)=C(C(N)=O)C(=O)[C@@]2(O)C(O)=C3C(=O)c4c(O)cccc4[C@@](C)(O)[C@H]3C[C@@H]12 [TETRACYCLINE]
Survival [1]: ~ 10% | MIC (Pseudomonas aeruginosa [2]): > 128 µM

C[n+]1c(/C=C/c2c[nH]c3ccccc23)ccc2ccccc21.[I-]
inhibition (Pseudomonas aeruginosa [3]): 20.4% | Activity (Pseudomonas aeruginosa [4]): Active | inhibition (Pseudomonas aeruginosa [5]): Dose-dependent-effect | Activity (Pseudomonas aeruginosa [6]): Active | Activity (Pseudomonas aeruginosa [7]): Active | Activity [8]: ~ 50% | Activity (Pseudomonas aeruginosa [9]): Active; Exhibited Relatively Modest Activity | inhibition (Pseudomonas aeruginosa [10]): 30% | inhibition (Pseudomonas aeruginosa [11]): 30% | Activity (Pseudomonas aeruginosa [12]): Active | Activity (Vero): Non-toxic | Activity (Pseudomonas aeruginosa [13]): 62.38% | Activity (Pseudomonas aeruginosa [14]): Active | inhibition (Pseudomonas aeruginosa [15]): Active; Exhibited Only A Modest Impact | Activity (Pseudomonas aeruginosa [16]): Active | Activity [17]: Non-toxic | inhibition (Pseudomonas aeruginosa [18]): Active; Inhibitory Effect Was Comparable To Qs Deficient Pao1 Double Mutant Lasi/Rhli | Activity (Pseudomonas aeruginosa [19]): Dose-dependent-effect | inhibition at 10 µM (Pseudomonas aeruginosa [20]): 29.2% | inhibition (Pseudomonas aeruginosa [21]): Dose-dependent-effect | Activity (Pseudomonas aeruginosa [22]): Active | inhibition (Pseudomonas aeruginosa [23]): 10% | inhibition (Pseudomonas aeruginosa [24]): Dose-dependent-effect | inhibition (Pseudomonas aeruginosa [25]): Dose-dependent-effect | Activity [26]: Toxic | Activity [27]: Non-toxic | MIC (Pseudomonas aeruginosa [2]): > 128 µM | Activity (Pseudomonas aeruginosa [28]): Dose-dependent-effect | Activity (DNA [29]): Not toxic | Activity (Pseudomonas aeruginosa [30]): Active | inhibition at 10 µM (Pseudomonas aeruginosa [31]): ~40% | Activity (Pseudomonas aeruginosa [32]): Active | Activity [33]: Non-toxic | inhibition at 1.25 µM (Pseudomonas aeruginosa [34]): ~21% | Activity [35]: Non-toxic | Activity (Pseudomonas aeruginosa [36]): Active | Activity (DNA [37]): Not toxic | Activity (Pseudomonas aeruginosa [38]): ~40% | Activity (Pseudomonas aeruginosa [39]): Active | Survival [40]: 95% | inhibition (Pseudomonas aeruginosa [41]): Dose-dependent-effect | IC50 (Pseudomonas aeruginosa [41]; PAO1, 24 h): 14.9 µM | Activity (Pseudomonas aeruginosa [42]): 59.02% | inhibition [43]: 44.5% | inhibition (Pseudomonas aeruginosa [44]): Dose-dependent-effect | Activity (Pseudomonas aeruginosa [45]): Dose-dependent-effect
